# Results reported in patent US8148392B2, “2-indolyl imidazo [4,5-d] phenanthroline derivatives and their use in the treatment of cancer” (Lorus Therapeutics Inc., priority 2005, dated 2012).
# Read-outs that look alike come from different tables or passages of the source.
# Experiments:
# supercoiled plasmid DNA = test: In vitro DNA cleavage assay; type: biochemical
# Procedure: Compound 3 was tested for its ability to cleave plasmid DNA in vitro in the presence of copper and the reducing agent ascorbic acid. Experiments were performed in a total of 20 μl, containing 10 mM NaH2PO4/Na2HPO4 buffer (pH 6.7), 1 μg of supercoiled plasmid DNA, 100 μM ascorbic acid, 25 μM drug compound (or vehicle), and 10 μM of CuSO4.5H20. The reaction mixture was incubated at 37° C. for 30 minutes, and 1 μl of 0.1 M EDTA was added to terminate the reaction. DNA loading buffer was added, and reactions were run at 80V for 80 minutes on a 1% agarose gel containing ethidium bromide.
# To determine whether ions other than copper could suffice, DNA cleavage reactions were also carried out in the presence of zinc or iron. Reactions were performed as above, in the presence of 25 μM of CuSO4.5H20, ZnCl2, or FeCl2.4H20. […] Note that copper alone in the presence of ascorbic acid can shift the ratio of supercoiled DNA to open circular DNA.
# To determine the ratios of compound to copper at which compound 3 was effective, reactions were performed as in FIG. 22A. The ratios of compound 3 to copper of 3:1, 2.5:1, 2:1, 1.5:1, and 1:1, as shown in FIG. 23 were achieved by maintaining the concentration of Cu constant at 10 μM, and varying the concentration of compound 3. The ratios of compound 3 to Cu of 1:1.5, 1:2, 1:2.5, and 1:3, were achieved by maintaining the concentration of compound 3 constant at 10 μM, and varying the concentration of copper.
# Other compounds of Formula I, compounds 5, 7, 9 and 13 were also tested for their ability to cleave DNA at a ratio of 2.5:1 to copper (FIG. 23). Ratios of compound 3:copper as indicated, plus concentrations of copper in the absence of compound 3 were used in the DNA cleavage assay as described above.
# [1] = system: human colon carcinoma HT-29 cells; test: XTT cell proliferation assay, HT-29; type: cell-based; details: HT-29, XTT
# Procedure: The ability of compounds of Formula I to inhibit the proliferation of human colon carcinoma HT-29 cells was tested as follows. HT-29 colon carcinoma cells used in this example and subsequent examples were maintained as a monolayer in a growth medium; McCoy's 5A modified medium (Sigma, St. Louis, Mo.), supplemented with 2 mM L-glutamine (Gibco, Grand Island, N.Y.), 10% fetal bovine serum (FBS) (Multicell, WISENT Inc. St-Bruno, QC), antibiotic-antimycotic (Multicell), at 37° C. in a 5% CO2-humidified incubator. Cells were transferred onto 150 mm tissue culture plates and grown until sub-confluency (70-80%) prior to their use. The in vitro antiproliferative activity of compounds was evaluated by incubating the cells with varying concentrations of the compounds as shown in Table 1 for 6-7 days. The efficacy of these compounds in this cell proliferation assay was measured based in the ability of live cells to reduce the tetrazolium salt XTT to orange colored compounds of formazan (XTT cell proliferation kit II, Roche Applied Science, Montreal, QC).
# The ability of compounds of Formula I to inhibit the proliferation of human colon carcinoma HT-29 cells was tested as described above in Example 13.
# Cell growth inhibition IC50 (μM) by compounds of Formula I was tested on various cancer cell types by XTT cell proliferation assay. The growth inhibitory effects of the compounds of Formula I as shown below for the melanoma cell line SK-MEL-2 were reproducible by Lorus Therapeutics Inc.
# [2] = Homo sapiens, as Example 13, Table 7, read-out: IC50
# [3] = Homo sapiens, 6-7 days, Table 3, read-out: IC50
SMILES,"IC50 ([1]; as Example 13, Table 7)",other results
"c1cnc2c(c1)ccc1cccnc12 [1,10-phenanthroline (OP), 1,10-phenanthroline, reference compound]",–,"cleavage of plasmid DNA (supercoiled plasmid DNA; 25 μM compound, 10 μM CuSO4, 100 μM ascorbic acid, 37° C., 30 minutes): able to cleave plasmid DNA; cleavage of plasmid DNA (supercoiled plasmid DNA; absence of copper or reducing agent): Neither compound 3 nor OP was able to cleave DNA"
c1ccc2c(-c3nc4c5cccnc5c5ncccc5c4[nH]3)c[nH]c2c1 [Compound 1],2 µg/mL,–
Fc1ccc2[nH]cc(-c3nc4c5cccnc5c5ncccc5c4[nH]3)c2c1 [Compound 4],–,"IC50 [1, 2]: 3.5 µg/mL"
COc1ccc2[nH]c(C)c(-c3nc4c5cccnc5c5ncccc5c4[nH]3)c2c1 [Compound 6],–,"IC50 [1, 3]: 1400 nM; IC50 [1, 2]: 1.4 µg/mL"
Cc1[nH]c2ccc(O)cc2c1-c1nc2c3cccnc3c3ncccc3c2[nH]1 [Compound 8],–,"IC50 [1, 2]: > 25 µg/mL"
Fc1ccc(-c2[nH]c3ccccc3c2-c2nc3c4cccnc4c4ncccc4c3[nH]2)cc1 [Compound 10],–,"IC50 [1, 3]: 180 nM; IC50 [1, 2]: 0.18 µg/mL"
Cn1c(-c2ccccc2)c(-c2nc3c4cccnc4c4ncccc4c3[nH]2)c2ccccc21 [Compound 18],0.37 µg/mL,–
Cc1[nH]c2ccc([N+](=O)[O-])cc2c1-c1nc2c3cccnc3c3ncccc3c2[nH]1 [Compound 38],3.5 µg/mL,–
CC(C)(C)c1[nH]c2ccccc2c1-c1nc2c3cccnc3c3ncccc3c2[nH]1 [Compound 39],0.45 µg/mL,–
Clc1ccc(-c2[nH]c3ccccc3c2-c2nc3c4cccnc4c4ncccc4c3[nH]2)cc1 [Compound 42],0.31 µg/mL,–
Cc1c(-c2nc3c4cccnc4c4ncccc4c3[nH]2)c2ccccc2n1CC(=O)N1CCCC1 [Compound 43],>5-25< μg/ml,–
O=C(Cn1cc(-c2nc3c4cccnc4c4ncccc4c3[nH]2)c2ccccc21)N1CCOCC1 [Compound 44],">5-25<, μg/ml",–
O=C(Cn1cc(-c2nc3c4cccnc4c4ncccc4c3[nH]2)c2ccccc21)N1CCCCCC1 [Compound 45],7 µg/mL,–
O=C(Cn1cc(-c2nc3c4cccnc4c4ncccc4c3[nH]2)c2ccccc21)N1CCCC1 [Compound 46],>5-25< μg/ml,–
O=C(Cn1cc(-c2nc3c4cccnc4c4ncccc4c3[nH]2)c2ccccc21)N1CCCCC1 [Compound 47],5 µg/mL,–
O=C(Cn1cc(-c2nc3c4cccnc4c4ncccc4c3[nH]2)c2cc(Br)ccc21)N1CCCC1 [Compound 49],>5-25< μg/ml,–
CC1CCCC(C)N1C(=O)Cn1cc(-c2nc3c4cccnc4c4ncccc4c3[nH]2)c2ccccc21 (centres unmarked) [Compound 50],2.3 µg/mL,–
CC1CCN(C(=O)Cn2cc(-c3nc4c5cccnc5c5ncccc5c4[nH]3)c3ccccc32)CC1 [Compound 51],5 µg/mL,–
CC(C)n1cc(-c2nc3c4cccnc4c4ncccc4c3[nH]2)c2ccccc21 [Compound 52],0.19 µg/mL,–
c1ccc2c(c1)c(-c1nc3c4cccnc4c4ncccc4c3[nH]1)cn2C1CCCC1 [Compound 53],0.19 µg/mL,–
COc1ccc2c(c1)c(-c1nc3c4cccnc4c4ncccc4c3[nH]1)cn2C(C)C [Compound 54],0.28 µg/mL,–
Cc1c(-c2nc3c4cccnc4c4ncccc4c3[nH]2)c2ccccc2n1CC(=O)N1CCC(C)CC1 [Compound 55],2.4 µg/mL,–
Cc1c(-c2nc3c4cccnc4c4ncccc4c3[nH]2)c2ccccc2n1CC(=O)N1CCCCCC1 [Compound 56],5 µg/mL,–
Cc1c(-c2nc3c4cccnc4c4ncccc4c3[nH]2)c2ccccc2n1CC(=O)N1CCCCC1 [Compound 57],5 µg/mL,–
CN1CCN(C(=O)Cn2cc(-c3nc4c5cccnc5c5ncccc5c4[nH]3)c3ccccc32)CC1 [Compound 58],>,–

SMILES,"IC50 ([1]; as Example 13, Table 7)",other results
Cn1c(N2CCOCC2)c(-c2nc3c4cccnc4c4ncccc4c3[nH]2)c2ccccc21 [Compound 59],0.6 µg/mL,–
CC(C)c1ccc2[nH]c(C(C)(C)C)c(-c3nc4c5cccnc5c5ncccc5c4[nH]3)c2c1 [Compound 61],0.4 µg/mL,–
Cc1cccc2c(-c3nc4c5cccnc5c5ncccc5c4[nH]3)c(C(C)(C)C)[nH]c12 [Compound 62],<0.1 µg/mL,–
CC(C)(C)c1[nH]c2ccc(F)cc2c1-c1nc2c3cccnc3c3ncccc3c2[nH]1 [Compound 65],0.35 µg/mL,–
CC(C)(C)c1[nH]c2c(F)cc(F)cc2c1-c1nc2c3cccnc3c3ncccc3c2[nH]1 [Compound 66],0.4 µg/mL,–
CC(C)(C)c1[nH]c2ccc(-c3ccccc3)cc2c1-c1nc2c3cccnc3c3ncccc3c2[nH]1 [Compound 68],0.34 µg/mL,–
Cc1ccc(C)c2c(-c3nc4c5cccnc5c5ncccc5c4[nH]3)c(C34CC5CC(CC(C5)C3)C4)[nH]c12 [Compound 70],0.35 µg/mL,–
CC(C)(C)c1[nH]c2ccc(C#N)cc2c1-c1nc2c3cccnc3c3ncccc3c2[nH]1 [Compound 71],3 µg/mL,–
Fc1ccc2[nH]c(C34CC5CC(CC(C5)C3)C4)c(-c3nc4c5cccnc5c5ncccc5c4[nH]3)c2c1 [Compound 72],0.18 µg/mL,–
CC(C)(C)c1ccc2[nH]c(C3CCCC3)c(-c3nc4c5cccnc5c5ncccc5c4[nH]3)c2c1 [Compound 73],0.22 µg/mL,–
Cc1ccccc1-c1[nH]c2ccc(C(C)(C)C)cc2c1-c1nc2c3cccnc3c3ncccc3c2[nH]1 [Compound 74],0.18 µg/mL,–
O=S(=O)(c1ccc2[nH]c(Cl)c(-c3nc4c5cccnc5c5ncccc5c4[nH]3)c2c1)N1CCOCC1 [Compound 75],>25 µg/mL,–
CN(C)S(=O)(=O)c1ccc2[nH]c(Cl)c(-c3nc4c5cccnc5c5ncccc5c4[nH]3)c2c1 [Compound 76],>25 µg/mL,–
Cc1c(-c2nc3c4cccnc4c4ncccc4c3[nH]2)c2cc(F)ccc2n1Cc1ccccc1 [Compound 77],0.24 µg/mL,–
c1ccc2c(-c3nc4c5cccnc5c5ncccc5c4[nH]3)c(C34CC5CC(CC(C5)C3)C4)[nH]c2c1 [Compound 78],0.38 µg/mL,–
CC(C)c1[nH]c2ccccc2c1-c1nc2c3cccnc3c3ncccc3c2[nH]1 [Compound 79],0.65 µg/mL,–
c1ccc2c(-c3nc4c5cccnc5c5ncccc5c4[nH]3)c(C3CCCCC3)[nH]c2c1 [Compound 80],0.42 µg/mL,–
c1ccc2c(-c3nc4c5cccnc5c5ncccc5c4[nH]3)c(C3CCCC3)[nH]c2c1 [Compound 81],0.4 µg/mL,–
CC(C)c1[nH]c2ccc(F)cc2c1-c1nc2c3cccnc3c3ncccc3c2[nH]1 [Compound 82],0.61 µg/mL,–
Cc1ccc(F)c2c(-c3nc4c5cccnc5c5ncccc5c4[nH]3)c(C(C)(C)C)[nH]c12 [Compound 83],0.1 µg/mL,–
Cc1cc(Cl)cc2c(-c3nc4c5cccnc5c5ncccc5c4[nH]3)c(C(C)(C)C)[nH]c12 [Compound 84],0.39 µg/mL,–
Cc1ccc(Cl)c2c(-c3nc4c5cccnc5c5ncccc5c4[nH]3)c(C(C)(C)C)[nH]c12 [Compound 85],0.24 µg/mL,–
CCc1ccc2[nH]c(C(C)(C)C)c(-c3nc4c5cccnc5c5ncccc5c4[nH]3)c2c1 [Compound 86],0.47 µg/mL,–
CC(C)(C)c1[nH]c2ccc(Br)cc2c1-c1nc2c3cccnc3c3ncccc3c2[nH]1 [Compound 87],0.42 µg/mL,–
CC(C)(C)c1[nH]c2c(F)cccc2c1-c1nc2c3cccnc3c3ncccc3c2[nH]1 [Compound 88],0.38 µg/mL,–
